Results reported in PubChem BioAssay (NCI).
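Dose response: 5 concentrations. Exposure: 48 h. Format: 96-well plates. Endpoint: linear interpolation; highest concentration if not reached. Here, GI50 denotes the concentration required for 50% inhibition of growth. TGI is the concentration that stops growth completely.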

Experiments:
Assay in all cases: growth of human tumour cells (NCI), 48 h
DU-145 prostate = system: DU-145 prostate
K-562 leukemia = system: K-562 leukemia
MOLT-4 leukemia = system: MOLT-4 leukemia
OVCAR-5 ovarian = system: OVCAR-5 ovarian
SK-MEL-5 melanoma = system: SK-MEL-5 melanoma
UACC-62 melanoma = system: UACC-62 melanoma

For `CCN1C(=S)N(c2ccccc2)C2NC(=S)N(/N=C/C=C/c3ccccc3OC)C21` (stereo not drawn), the GI50 (DU-145 prostate) was 0.356 µM, the TGI (DU-145 prostate) was 28.5 µM and the GI50 (K-562 leukemia) was 0.302 µM. The TGI (K-562 leukemia) was over 100 µM, the GI50 (MOLT-4 leukemia) was 0.548 µM and the TGI (MOLT-4 leukemia) was over 100 µM. The GI50 (OVCAR-5 ovarian) was 0.69 µM, the TGI (OVCAR-5 ovarian) was over 100 µM and the GI50 (SK-MEL-5 melanoma) was 0.322 µM. For the same compound, the TGI (SK-MEL-5 melanoma) was 3.14 µM, the GI50 (UACC-62 melanoma) was 0.421 µM and the TGI (UACC-62 melanoma) was over 100 µM.
Compound `CCSCC1CC(O)(c2ccccc2)CC(c2ccc(F)cc2)O1` (stereo not drawn) has a GI50 (DU-145 prostate) of 2.66 µM, a TGI (DU-145 prostate) of 7.17 µM and a GI50 (K-562 leukemia) of 1.83 µM. It also gave a TGI (K-562 leukemia) of 3.93 µM, a GI50 (MOLT-4 leukemia) of 1.66 µM and a TGI (MOLT-4 leukemia) of 4.14 µM. It also gave a GI50 (OVCAR-5 ovarian) of 2.17 µM, a TGI (OVCAR-5 ovarian) of 5.09 µM and a GI50 (SK-MEL-5 melanoma) of 1.74 µM. It also gave a TGI (SK-MEL-5 melanoma) of 3.16 µM, a GI50 (UACC-62 melanoma) of 1.42 µM and a TGI (UACC-62 melanoma) of 3.2 µM.
For `Cc1nc([P+](c2ccccc2)(c2ccccc2)c2ccccc2)c(Sc2sc(-c3ccccc3)nc2[P+](c2ccccc2)(c2ccccc2)c2ccccc2)o1`, the GI50 (DU-145 prostate) was 1.22 µM, the TGI (DU-145 prostate) was 4.96 µM and the GI50 (K-562 leukemia) was 0.368 µM. It also gave a TGI (K-562 leukemia) of 5.9 µM, a GI50 (MOLT-4 leukemia) of 1.8 µM and a TGI (MOLT-4 leukemia) of 6.15 µM. It also gave a GI50 (OVCAR-5 ovarian) of 2.29 µM, a TGI (OVCAR-5 ovarian) of 8.53 µM and a GI50 (SK-MEL-5 melanoma) of 1.48 µM. For the same compound, the TGI (SK-MEL-5 melanoma) was 2.85 µM, the GI50 (UACC-62 melanoma) was 1.51 µM and the TGI (UACC-62 melanoma) was 3.67 µM.
For `CC(=O)c1ccc2c(c1)c1cc(C(C)=O)ccc1n2CCNC(C)C`, the GI50 (DU-145 prostate) was 0.453 µM, the TGI (DU-145 prostate) was 5.42 µM and the GI50 (K-562 leukemia) was 0.332 µM. The TGI (K-562 leukemia) was 1.81 µM, the GI50 (MOLT-4 leukemia) was 0.337 µM and the TGI (MOLT-4 leukemia) was 1.79 µM. It also gave a GI50 (OVCAR-5 ovarian) of 0.462 µM, a TGI (OVCAR-5 ovarian) of 5.56 µM and a GI50 (SK-MEL-5 melanoma) of 0.291 µM. The TGI (SK-MEL-5 melanoma) was 0.923 µM, the GI50 (UACC-62 melanoma) was 0.25 µM and the TGI (UACC-62 melanoma) was 0.78 µM.
With `OCCN1CCN(CCCN2c3ccccc3Sc3ccc(Cl)cc32)CC1` the GI50 (DU-145 prostate) was 5.04 µM, the TGI (DU-145 prostate) was 16.2 µM and the GI50 (K-562 leukemia) was 2.1 µM. It also gave a TGI (K-562 leukemia) of 4.45 µM, a GI50 (MOLT-4 leukemia) of 2.4 µM and a TGI (MOLT-4 leukemia) of 5.79 µM. The GI50 (OVCAR-5 ovarian) was 3.12 µM, the TGI (OVCAR-5 ovarian) was 12.1 µM and the GI50 (SK-MEL-5 melanoma) was 1.65 µM. For the same compound, the TGI (SK-MEL-5 melanoma) was 3 µM, the GI50 (UACC-62 melanoma) was 1.76 µM and the TGI (UACC-62 melanoma) was 3.29 µM.
Compound `Cc1cc(S(=O)(=O)Nc2nc3ccccc3o2)c(SCc2ccccc2)cc1Cl` has a GI50 (DU-145 prostate) of 26.5 µM, a TGI (DU-145 prostate) of 77.9 µM and a GI50 (K-562 leukemia) of 31.8 µM. For the same compound, the TGI (K-562 leukemia) was over 100 µM, the GI50 (MOLT-4 leukemia) was 24.4 µM and the TGI (MOLT-4 leukemia) was over 100 µM. It also gave a GI50 (OVCAR-5 ovarian) of 20.3 µM, a TGI (OVCAR-5 ovarian) of 46.1 µM and a GI50 (SK-MEL-5 melanoma) of 16.7 µM. The TGI (SK-MEL-5 melanoma) was 33.4 µM, the GI50 (UACC-62 melanoma) was 28.7 µM and the TGI (UACC-62 melanoma) was 79.5 µM.
`Fc1cc2[nH]ncc2c2c3c(c(-c4cn[nH]c4C(F)(F)F)nc12)CCCC3` gave a GI50 (DU-145 prostate) of 1.72 µM, a TGI (DU-145 prostate) of over 100 µM and a GI50 (K-562 leukemia) of 2.07 µM. For the same compound, the TGI (K-562 leukemia) was over 100 µM, the GI50 (MOLT-4 leukemia) was 0.802 µM and the TGI (MOLT-4 leukemia) was 3.75 µM. For the same compound, the GI50 (OVCAR-5 ovarian) was 2.49 µM, the TGI (OVCAR-5 ovarian) was 7.43 µM and the GI50 (SK-MEL-5 melanoma) was 1.23 µM. For the same compound, the TGI (SK-MEL-5 melanoma) was 2.95 µM, the GI50 (UACC-62 melanoma) was 1.31 µM and the TGI (UACC-62 melanoma) was 3 µM.
In the case of `CCOC(=O)c1cc(C(=O)c2cc(OC)c(OC)c(OC)c2)n2ncccc12`, the GI50 (DU-145 prostate) is reported as 0.37 µM, the TGI (DU-145 prostate) is reported as over 100 µM and the GI50 (K-562 leukemia) is reported as 0.124 µM. It also gave a TGI (K-562 leukemia) of over 100 µM, a GI50 (MOLT-4 leukemia) of 0.575 µM and a TGI (MOLT-4 leukemia) of over 100 µM. The GI50 (OVCAR-5 ovarian) was 2.72 µM, the TGI (OVCAR-5 ovarian) was over 100 µM and the GI50 (SK-MEL-5 melanoma) was 0.247 µM. The TGI (SK-MEL-5 melanoma) was over 100 µM, the GI50 (UACC-62 melanoma) was 0.196 µM and the TGI (UACC-62 melanoma) was over 100 µM.
`CCN1C/C(=C\c2cc(OC)c(OC)cc2OC)C(=O)/C(=C/c2cc(OC)c(OC)cc2OC)C1` gave a GI50 (DU-145 prostate) of 1.85 µM, a TGI (DU-145 prostate) of 4.12 µM and a GI50 (K-562 leukemia) of 3.58 µM. For the same compound, the TGI (K-562 leukemia) was over 100 µM, the GI50 (MOLT-4 leukemia) was 4.1 µM and the TGI (MOLT-4 leukemia) was 81.6 µM. It also gave a GI50 (OVCAR-5 ovarian) of 3.2 µM, a TGI (OVCAR-5 ovarian) of over 100 µM and a GI50 (SK-MEL-5 melanoma) of 1.59 µM. For the same compound, the TGI (SK-MEL-5 melanoma) was 3.53 µM, the GI50 (UACC-62 melanoma) was 2.13 µM and the TGI (UACC-62 melanoma) was 4.28 µM.
